Assay results reported in patent EP4603105A1, “PHARMACEUTICAL COMPOSITION CONTAINING CYCLIC COMPOUND HAVING SELECTIVE KRAS INHIBITORY EFFECT AGAINST HRAS AND NRAS” (CHUGAI SEIYAKU KABUSHIKI KAISHA, priority 2022, dated 2024).

Assays:
[1] = biological target: GDP-bound KRAS wild-type protein (Homo sapiens, UniProt P01116); assay: Binding to KRAS by surface plasmon resonance (SPR), dissociation constant KD; conditions: Single Cycle Kinetics
Outline: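 Affinity is measured by surface plasmon resonance at 30°C against captured, GDP-loaded RAS carrying a biotinylated Avi tag. Compounds are titrated by single-cycle kinetics, and KD comes from a 1:1 fit.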

HRAS wild-type protein = HRAS wild-type protein (Homo sapiens, UniProt P01112); assay: Binding to HRAS by surface plasmon resonance (SPR), KD and KD ratio to KRAS; conditions: ratio of KD for HRAS wild-type protein to KD for KRAS
Sequence of HRAS wild-type protein (P01112 whole entry): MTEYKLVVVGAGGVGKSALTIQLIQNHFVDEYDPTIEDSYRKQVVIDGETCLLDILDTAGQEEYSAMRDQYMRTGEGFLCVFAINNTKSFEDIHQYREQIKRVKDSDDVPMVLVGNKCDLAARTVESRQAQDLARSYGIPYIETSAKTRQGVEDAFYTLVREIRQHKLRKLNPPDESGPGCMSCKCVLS
Outline: (§1)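 GDP-bound biotin-Avi RAS captured at ~100–300 RU, 30°C, pH 7.4 HBS containing 10 µM GDP, 10 mM MgCl2, 1 mM DTT, 0.01% Tween 20 and 4% DMSO. KD by 1:1 fitting.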

[2] = biological target: GDP-bound NRAS wild-type protein (Homo sapiens, UniProt P01111); assay: Binding to NRAS by surface plasmon resonance (SPR), KD and KD ratio to KRAS; conditions: ratio of KD for GDP-bound NRAS wild-type protein to KD for KRAS
Sequence of GDP-bound NRAS wild-type protein (P01111 whole entry): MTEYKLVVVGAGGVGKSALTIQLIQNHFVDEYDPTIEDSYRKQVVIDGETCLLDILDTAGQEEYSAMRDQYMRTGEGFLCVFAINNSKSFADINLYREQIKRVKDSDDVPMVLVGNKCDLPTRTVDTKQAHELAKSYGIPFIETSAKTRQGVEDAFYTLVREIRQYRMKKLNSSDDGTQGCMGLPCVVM
Outline: as §1

[3] = test system: human lung cancer strain NCI-H441; assay: NCI-H441 cell proliferation inhibitory activity (CellTiter-Glo, 4 days); type: cell-based; conditions: NCI-H441 cells, 4 days, read-out: NCl-H441 IC50
Outline: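 Readout: […] after the ATP-based reagent. Compound: serial dilutions in dimethyl sulfoxide.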

Sequence of GDP-bound KRAS wild-type protein (P01116 1-188 isoform P01116-2): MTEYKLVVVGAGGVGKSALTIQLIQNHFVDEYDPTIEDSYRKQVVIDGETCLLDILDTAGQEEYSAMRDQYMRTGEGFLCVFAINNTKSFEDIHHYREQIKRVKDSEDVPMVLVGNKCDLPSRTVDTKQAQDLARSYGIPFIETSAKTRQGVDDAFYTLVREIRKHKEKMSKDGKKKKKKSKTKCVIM

SMILES	Kd [1] [nM]	HRAS /KRAS (HRAS wild-type protein)	NRAS /KRAS [2]	IC50 [3] [nM]
CCC[C@H]1C(=O)N[C@@H]([C@@H](C)CC)C(=O)N(C)CC(=O)N(C)[C@H]2C/C=C\CCN(C2=O)[C@@H](Cc2ccc(C(F)(F)F)cc2)C(=O)N(C)CC(=O)N[C@@H](CCc2cc(F)c(C(F)(F)F)c(F)c2)C(=O)N2CC3(CC3)C[C@H]2C(=O)NC2(CCC2)C(=O)N(C)[C@@H](CC(C)(C)C)C(=O)N(C)[C@H](C(=O)N(C)C)CC(=O)N1C [PP3406]	0.035	B (a compound having 3 or more and less than 10 is denoted as B)	A (a compound having 10 or more and less than 20 is denoted as A)	5.7
CCCO[C@@H]1C[C@H]2C(=O)NC3(CC(C)(C)C3)C(=O)N(C)[C@@H](C3CCCC3)C(=O)N(C)[C@H](C(=O)N(C)CC)CC(=O)N(C)[C@@H](COCC)C(=O)N[C@@H]([C@@H](C)CC)C(=O)N3C[C@@H](C)C[C@H]3C(=O)N(C)[C@H]3C/C=C\CCN(C3=O)[C@@H](Cc3ccc(C(F)(F)F)cc3)C(=O)N(C)CC(=O)N[C@@H](CCc3ccc(C(F)(F)F)c(Cl)c3)C(=O)N2C1 [PP3407]	3.8	A (a compound having 10 or more and less than 20 is denoted as A)	A (a compound having 10 or more and less than 20 is denoted as A)	73.8
CCC[C@H]1C(=O)N[C@@H]([C@@H](C)CC)C(=O)N(C)CC(=O)N(C)[C@H]2C/C=C\CCN(C2=O)[C@@H](Cc2ccc(C(F)(F)F)cc2)C(=O)N(C)CC(=O)N[C@@H](CCc2ccc(C(F)(F)F)c(OC)c2)C(=O)N2CC3(CC3)C[C@H]2C(=O)NC2(CCC2)C(=O)N(C)[C@@H](C(CC)CC)C(=O)N(C)[C@H](C(=O)N(C)C)CC(=O)N1C [PP3408]	0.32	A (a compound having 10 or more and less than 20 is denoted as A)	AA (a compound having 20 or more is denoted as AA)	12.8
CCCO[C@@H]1C[C@H]2C(=O)NC3(CC(C)(C)C3)C(=O)N(C)[C@@H](C3CCCC3)C(=O)N(C)[C@H](C(=O)N(C)CC)CC(=O)N(C)[C@@H](COCC)C(=O)N[C@@H]([C@@H](C)CC)C(=O)N3C[C@@H](F)C[C@H]3C(=O)N(C)[C@H]3C/C=C\CCN(C3=O)[C@@H](Cc3ccc(C(F)(F)F)cc3)C(=O)N(C)CC(=O)N[C@@H](CCc3ccc(C(F)(F)F)c(Cl)c3)C(=O)N2C1 [PP3409]	0.55	A (a compound having 10 or more and less than 20 is denoted as A)	A (a compound having 10 or more and less than 20 is denoted as A)	21
CCC[C@H]1C(=O)N[C@@H]([C@@H](C)CC)C(=O)N(C)CC(=O)N(C)[C@H]2C/C=C\CCN(C2=O)[C@@H](Cc2ccc(C(F)(F)F)cc2)C(=O)N(C)CC(=O)N[C@@H](CCc2ccc(C(F)(F)F)c(OC)c2)C(=O)N2CC3(CC3)C[C@H]2C(=O)NC2(CCC2)C(=O)N(C)[C@@H]([C@@H](C)CC)C(=O)N(C)[C@H](C(=O)N(C)C)CC(=O)N1C [PP3410]	0.24	A (a compound having 10 or more and less than 20 is denoted as A)	AA (a compound having 20 or more is denoted as AA)	15.6
CCCO[C@@H]1C[C@H]2C(=O)NC3(CC(C)(C)C3)C(=O)N(C)[C@@H](C3CCCC3)C(=O)N(C)[C@H](C(=O)N(C)CC)CC(=O)N(C)[C@@H](COCC)C(=O)N[C@@H]([C@@H](C)CC)C(=O)N(C3CC3)CC(=O)N(C)[C@H]3C/C=C\CCN(C3=O)[C@@H](Cc3ccc(C(F)(F)F)cc3)C(=O)N(C)CC(=O)N[C@@H](CCc3ccc(C(F)(F)F)c(OC)c3)C(=O)N2C1 [PP3411]	0.72	A (a compound having 10 or more and less than 20 is denoted as A)	A (a compound having 10 or more and less than 20 is denoted as A)	25.8
CCC[C@H]1C(=O)N[C@@H]([C@@H](C)CC)C(=O)N(C)CC(=O)N(C)[C@H]2C/C=C\CCN(C2=O)[C@@H](Cc2ccc(C(F)(F)F)cc2)C(=O)N(C)CC(=O)N[C@@H](CCc2ccc(C(F)(F)F)c(OC)c2)C(=O)N2CC3(CC3)C[C@H]2C(=O)NC2(CCC2)C(=O)N(C)[C@@H](CC(C)(C)C)C(=O)N(C)[C@H](C(=O)N(C)C)CC(=O)N1C [PP3412]	0.037	B (a compound having 3 or more and less than 10 is denoted as B)	A (a compound having 10 or more and less than 20 is denoted as A)	4.3
CCCO[C@@H]1C[C@H]2C(=O)NC3(CC(C)(C)C3)C(=O)N(C)[C@@H](C3CCCC3)C(=O)N(C)[C@H](C(=O)N(C)CC)CC(=O)N(C)[C@@H](COCC)C(=O)N[C@@H]([C@@H](C)CC)C(=O)N3CCC[C@H]3C(=O)N(C)[C@H]3C/C=C\CCN(C3=O)[C@@H](Cc3ccc(C(F)(F)F)cc3)C(=O)N(C)CC(=O)N[C@@H](CCc3ccc(C(F)(F)F)c(OC)c3)C(=O)N2C1 [PP3413]	0.73	A (a compound having 10 or more and less than 20 is denoted as A)	AA (a compound having 20 or more is denoted as AA)	23.8
CCCO[C@@H]1C[C@H]2C(=O)NC3(CC(C)(C)C3)C(=O)N(C)[C@@H](C3CCCC3)C(=O)N(C)[C@H](C(=O)N(C)CC)CC(=O)N(C)[C@@H](COCC)C(=O)N[C@@H]([C@@H](C)CC)C(=O)N3C[C@@H](C)C[C@H]3C(=O)N(C)[C@H]3C/C=C\CCN(C3=O)[C@@H](Cc3ccc(C(F)(F)F)cc3)C(=O)N(C)CC(=O)N[C@@H](CCc3ccc(C(F)(F)F)c(OC)c3)C(=O)N2C1 [PP3415]	2.5	A (a compound having 10 or more and less than 20 is denoted as A)	A (a compound having 10 or more and less than 20 is denoted as A)	47.5
CCC[C@H]1C(=O)N[C@@H]([C@@H](C)CC)C(=O)N(C)CC(=O)N(C)[C@H]2C/C=C\CCN(C2=O)[C@@H](Cc2ccc(C(F)(F)F)cc2)C(=O)N(C)CC(=O)N[C@@H](CCc2ccc(C(F)(F)F)c(Cl)c2)C(=O)N2CC3(CC3)C[C@H]2C(=O)NC2(CCC2)C(=O)N(C)[C@@H]([C@@H](C)CC)C(=O)N(C)[C@H](C(=O)N(C)C)CC(=O)N1C [PP3416]	0.25	A (a compound having 10 or more and less than 20 is denoted as A)	AA (a compound having 20 or more is denoted as AA)	12.9
CCCO[C@@H]1C[C@H]2C(=O)NC3(CC(C)(C)C3)C(=O)N(C)[C@@H](C3CCCC3)C(=O)N(C)[C@H](C(=O)N(C)CC)CC(=O)N(C)[C@@H](COCC)C(=O)N[C@@H]([C@@H](C)CC)C(=O)N3C[C@@H](F)C[C@H]3C(=O)N(C)[C@H]3C/C=C\CCN(C3=O)[C@@H](Cc3ccc(C(F)(F)F)cc3)C(=O)N(C)CC(=O)N[C@@H](CCc3ccc(C(F)(F)F)c(OC)c3)C(=O)N2C1 [PP3417]	0.36	A (a compound having 10 or more and less than 20 is denoted as A)	A (a compound having 10 or more and less than 20 is denoted as A)	13
CCC[C@H]1C(=O)N[C@@H]([C@@H](C)CC)C(=O)N(C)CC(=O)N(C)[C@H]2C/C=C\CCN(C2=O)[C@@H](Cc2ccc(C(F)(F)F)cc2)C(=O)N(C)CC(=O)N[C@@H](CCc2ccc(C(F)(F)F)c(Cl)c2)C(=O)N2CC3(CC3)C[C@H]2C(=O)NC2(CCC2)C(=O)N(C)[C@@H](CC(C)(C)C)C(=O)N(C)[C@H](C(=O)N(C)C)CC(=O)N1C [PP3418]	0.041	B (a compound having 3 or more and less than 10 is denoted as B)	A (a compound having 10 or more and less than 20 is denoted as A)	5.4
CCCO[C@@H]1C[C@H]2C(=O)NC3(CC(C)(C)C3)C(=O)N(C)[C@@H](C3CCCC3)C(=O)N(C)[C@H](C(=O)N(C)CC)CC(=O)N(C)[C@@H](COCC)C(=O)N[C@@H]([C@@H](C)CC)C(=O)N(C)CC(=O)N(C)[C@H]3C/C=C\CCN(C3=O)[C@@H](Cc3ccc(C)cc3)C(=O)N(C)CC(=O)N[C@@H](CCc3cc(F)c(C(F)(F)F)c(F)c3)C(=O)N2C1 [PP3419]	0.15	A (a compound having 10 or more and less than 20 is denoted as A)	A (a compound having 10 or more and less than 20 is denoted as A)	12.1
CCC[C@H]1C(=O)N[C@@H]([C@@H](C)CC)C(=O)N(C)CC(=O)N(C)[C@H]2C/C=C\CCN(C2=O)[C@@H](Cc2ccc(C)cc2)C(=O)N(C)CC(=O)N[C@@H](CCc2cc(F)c(C(F)(F)F)c(F)c2)C(=O)N2CC3(CC3)C[C@H]2C(=O)NC2(CCC2)C(=O)N(C)[C@@H](C(CC)CC)C(=O)N(C)[C@H](C(=O)N(C)C)CC(=O)N1C [PP3420]	0.42	A (a compound having 10 or more and less than 20 is denoted as A)	AA (a compound having 20 or more is denoted as AA)	13.2
